PubChem BioAssay AID449750 (Broad Institute, 2010)
Calls of active or inactive are those of the source. The rule behind the calls is not given here.

Experiment: non-covalent RecA intein splicing inhibitors, dose response, biochemical, cell-free, fluorescence, secondary screen (AID 449750)

| SMILES | AC50 |
| --- | --- |
| Cc1cc(N/N=C/c2ccc(O)c(C)c2O)nc(-c2ccccc2O)n1 | > 38 µM (inactive) |
| Cc1nn(C(=O)c2cccnc2)c(C)c1Sc1ccc(Br)cc1 | 24.5 µM |
| COc1cccc(NC(=O)c2nc(S(C)(=O)=O)ncc2Cl)c1 | > 38 µM (inactive) |
| Cc1ccc(N2C(=O)NC(=O)/C(=C/c3ccc(OC(=O)c4cccs4)cc3)C2=O)cc1 | 5.9 µM |
| O=C1c2cc([N+](=O)[O-])ccc2-c2ncccc21 | > 38 µM (inactive) |
| CS(=O)(=O)C1=NN2C(=N)/C(=C\c3ccc(OC(=O)c4ccco4)cc3)C(=O)N=C2S1 | > 38 µM (inactive) |
| Cc1ccc(N(CCC#N)C(=O)CCl)cc1C | 11.5 µM |
| COC(=O)c1ccccc1-c1ccc(C(c2c(C)[nH][nH]c2=O)c2c(C)[nH][nH]c2=O)o1 | 3.62 µM |
| CCN1CCN(C(c2cccnc2)c2cc(Cl)c3cccnc3c2O)CC1 (stereo not given) | 16 µM |
| N#Cc1cc([N+](=O)[O-])ccc1NC(=O)COC(=O)CCC1CCCCC1 | 15.1 µM |
| O=C(CCCN1C(=O)/C(=C/c2ccccc2)SC1=S)Nc1ccc(C(=O)O)c(O)c1 | 33.8 µM |
| O=c1[nH]c(Nc2ccccc2)cc2cc(Br)ccc12 | 7 µM |
| Cc1ccc(NC(=O)c2sc3ncnc(N4CCN(c5ccccn5)CC4)c3c2C)c(C)c1 | > 38 µM (inactive) |
| O=[N+]([O-])c1cc(O)c2ncccc2c1 | 8.43 µM |
| CCc1oc2ccccc2c1C(=O)c1cc(Br)c(O)c(Br)c1 | 9.46 µM |
| Cc1sc(NC(=O)CSC2=NCCS2)nc1-c1ccccc1 | 26.1 µM |
| CC(C)c1nnc(NC(=O)c2nc(S(=O)(=O)Cc3ccc(F)cc3)ncc2Cl)s1 | > 38 µM (inactive) |
| COCc1[nH]nc2c1C(c1ccccc1F)C(C#N)=C(N)O2 (stereo not given) | > 38 µM (inactive) |
| COc1ccc(S(=O)(=O)Nc2cc(SCC(=O)O)c(O)c3ccccc23)cc1 | 2.14 µM |
| CCOC(=O)C(C#N)C(c1cccnc1)c1c(C)[nH][nH]c1=O (stereo not given) | > 38 µM (inactive) |
| Cc1[nH]c2ccccc2c1C(C#N)(C#N)C1C(=O)c2ccccc2C1=O | 2.58 µM |
| COC(=O)c1ccccc1S(=O)(=O)N1CCC(NC(=O)c2ccccc2)CC1 | > 38 µM (inactive) |
| O=C(O)CC1S/C(=N/N=C/c2ccc(-c3ccccc3[N+](=O)[O-])o2)NC1=O (stereo not given) | 9.4 µM |
| COC(=O)c1ccccc1NC(=S)NC(=O)c1ccc(C)cc1 | > 38 µM (inactive) |
| Fc1ccc(Nc2nc(Oc3ccccc3F)nc(N3CCCC3)n2)cc1 | > 38 µM (inactive) |
| Cc1ccc(SCC2=NNC(=O)C2)cc1 | 31.5 µM |
| CCCCn1[nH]c(-c2ccccc2)cc1=O | 8.57 µM |

| SMILES | AC50 |
| --- | --- |
| CC(=O)c1cccc(NC(=O)CSc2ncc(C(=O)Nc3ccccc3)c(=O)n2C)c1 | > 12 µM (inactive) |
| O=C(NC1(O)C(=O)c2ccccc2C1=O)c1ccccc1 | 9.46 µM |
| CCn1nc(C)c(C2C(C#N)=C(N)Oc3n[nH]c(C)c32)c1C (stereo not given) | > 38 µM (inactive) |
| Cc1cccc(OCC(=O)Oc2ccc(Cl)cc2)c1 | > 12 µM (inactive) |
| O=C(c1c[nH]c(C(=O)C(Cl)(Cl)Cl)c1)c1ccccc1Br | 24.8 µM |
| CN(C)/C=C/C(=O)c1ccc2noc(-c3ccc(F)cc3)c2c1 | > 38 µM (inactive) |
| Cc1nc(COC(=O)c2cc(O)c3ccccc3c2O)cs1 | 15.1 µM |
| CCC(CC)C(=O)NCc1ccc2c(c1)cc(C)n2C | > 38 µM (inactive) |
| CC(=O)n1cc(N(C(=O)CCl)c2ccc([N+](=O)[O-])cc2)c2ccccc21 | 4.74 µM |
| COC(=O)CN1C(c2ccc(Cl)cc2)=Nc2ccc(Cl)cc2C1c1ccccc1 (stereo not given) | 5.48 µM |
| CCOC(=O)Cn1cc(/C=N/NC(=O)CC#N)c2ccccc21 | > 38 µM (inactive) |
| CC1=NNC(=O)C1Cc1c(Cl)cccc1Cl (stereo not given) | > 38 µM (inactive) |
| O=C(CCNc1cccc(F)c1)c1cccc([N+](=O)[O-])c1 | > 38 µM (inactive) |
| CC/C(=C/c1sc2ccc(C)cc2[n+]1CCO)SC | > 38 µM (inactive) |
| CC(=O)NC1C(=O)N(CCN2CCOCC2)c2ccc(C)cc21 (stereo not given) | 21.6 µM |
| CCCc1[nH]nc2c1C(c1ccc(OCCN3CCOCC3)c(OC)c1)C(C#N)=C(N)O2 (stereo not given) | > 38 µM (inactive) |
| COC(=O)CCS(=O)(=O)c1nc(-c2ccccc2)cc(C(F)(F)F)n1 | > 38 µM (inactive) |
| CN(C(=O)c1ccc(S(=O)(=O)c2cccc(Cl)c2)c([N+](=O)[O-])c1)C1CCCCC1 | 13.7 µM |
| O=C(CCl)N=c1sccn1Cc1ccc(Cl)cc1Cl | 5.88 µM |
| COc1cc(C2(c3ccc(O)c(OC)c3)C(=O)Nc3c(C)cc(Br)cc32)ccc1O | 9.32 µM |
| O=[N+]([O-])c1c(NCCCO)cc(SCc2ccco2)c2nonc12 | > 38 µM (inactive) |
| COc1ccc(Br)cc1[C@H]1[C@H]2C=CC[C@@H](C)[C@@H]2C(=O)N1Cc1ccccc1 | 14.4 µM |
| CC(C)[C@H](NC(=O)Nc1ccc(Oc2ccccc2)cc1)C(=O)O | > 38 µM (inactive) |
| O=[N+]([O-])c1ccc(Oc2cccc(Br)c2)c2ccncc12 | 13.1 µM |
| [O-]C1=N/[N+](=C/c2ccccc2)CC1 | > 38 µM (inactive) |
| O=C(OCn1ncc(Cl)c(Cl)c1=O)c1ccc(C(F)(F)F)cc1 | 3.99 µM |
| O=C1CC(c2cccnc2)=NN1c1ccccc1 | > 38 µM (inactive) |

| SMILES | AC50 |
| --- | --- |
| O=C1c2ccccc2-n2c1nc1ccccc1c2=O | > 38 µM (inactive) |
| CCn1c(COc2cccc3ccccc23)nnc1SCC(N)=O | > 38 µM (inactive) |
| O=C1C(=O)c2ccccc2C([O-])=C1[n+]1ccccc1 | 28.5 µM |
| CC1C(=O)C(C)C(c2cc(Cl)ccc2O)NC1c1cc(Cl)ccc1O (stereo not given) | 5.18 µM |
| CCC(=O)N/N=C(\C)CC(=O)Nc1cccc([N+](=O)[O-])c1 | > 38 µM (inactive) |
| C/C(CC(=O)Nc1ccccn1)=N\NC(=O)c1cccc(C)c1 | > 38 µM (inactive) |
| O=C(Nc1ccccc1)c1nnsc1S(=O)c1ccc(Cl)cc1 (stereo not given) | > 38 µM (inactive) |
| CC1=NN(C)C(=O)C1Cc1c(F)cccc1Cl (stereo not given) | > 38 µM (inactive) |
| Cc1ccc(C2=NN(C(=O)CCl)C(c3ccco3)C2)o1 (stereo not given) | 6.65 µM |
| COc1cccc(-c2[nH]nc3c2C(c2ccsc2)C(C#N)=C(N)O3)c1 (stereo not given) | 5.11 µM |
| COc1ccc(-c2cc(C(F)(F)F)nc(S(=O)(=O)CCCC(=O)Nc3cccc(O)c3)n2)cc1OC | > 38 µM (inactive) |
| CCOc1ccc(NC(=O)C(c2ccccn2)N(C(=O)CCl)c2ccc(F)cc2)cc1 (stereo not given) | 36.2 µM |
| O=S(=O)(Nc1ccc(O)c2ccccc12)c1ccc(F)cc1 | 0.377 µM |
| CN1CCN(c2ccc([N+](=O)[O-])c3no[n+]([O-])c23)CC1 | > 38 µM (inactive) |
| O=C1C(Br)=Cc2cccc3cccc1c23 | > 38 µM (inactive) |
| CC(C)(C)C(=O)Nc1ccc(N=Nc2ccccc2)cc1 | 7.69 µM |
| O=C(NCc1ccc2c(c1)OCO2)c1nc(S(=O)(=O)Cc2ccccc2)ncc1Cl | > 38 µM (inactive) |
| C[C@@H]1CC=C[C@H]2[C@H]1C(=O)N(Cc1ccccc1)[C@H]2c1ccc(F)c(Br)c1 | 17.9 µM |
| O=C(CN1CCN(S(=O)(=O)c2ccc(Cl)cc2)CC1)Nc1ccc2c(c1)OCO2 | > 38 µM (inactive) |
| O=S(=O)(c1ccc(Cl)c(Cl)c1)c1snnc1-c1ccccc1 | 9.72 µM |
| O=c1[nH]cc(O)c(=O)[nH]1 | 7.38 µM |
| N#CC(C#N)C(c1ccsc1)c1c(-c2ccccc2)[nH][nH]c1=O (stereo not given) | 37.8 µM |
| COc1ccc(CC2=CC(=O)c3ccccc3C2=O)cc1 | 6.95 µM |
| O=C(NNC(=O)c1ccc([N+](=O)[O-])o1)c1ccccc1 | 33.6 µM |
| COC(=O)CSc1nc2sc3c(c2c(=O)n1C1CCCCC1)CCN(C)C3 | > 38 µM (inactive) |
| CC(=O)Nc1ccc(S(=O)(=O)/N=C2\C(=O)c3ccccc3C([O-])=C2n2cc[n+](-c3ccccn3)c2)cc1 | 5.71 µM |
| COCc1[nH]nc2c1C(c1ccc(OC)c(OC)c1)C(C#N)=C(N)O2 (stereo not given) | > 38 µM (inactive) |

| SMILES | AC50 |
| --- | --- |
| Cc1ccc(NC2=CC(=O)C(=O)c3ccccc32)cc1 | 6.16 µM |
| O=C(Cc1ccccc1)NC1(O)C(=O)c2ccccc2C1=O | 7.01 µM |
| CC1=NN(c2ccc(F)cc2)C(=O)C1C(c1cccc(O)c1)c1c(C)[nH]n(-c2ccc(F)cc2)c1=O (stereo not given) | 2.89 µM |
| c1ccc(C2[C@H]3CN(Cc4cccnc4)[C@H](c4ccccc4)C34CC2(c2cccnc2)C4)cc1 (stereo not given in full) | 10.7 µM |
| CCOC(=O)c1c(NC(C)=O)sc2c1CCC(C=NCCCN(CC)CC)=C2Sc1ccccc1 | 0.311 µM |
| Cc1ccc(-c2[nH]nc3c2C(C)C(C#N)=C(N)O3)cc1 (stereo not given) | > 38 µM (inactive) |
| CCOC(=O)CN1C(=O)N[C@@H](c2cccc(C(F)(F)F)c2)C(C(C)=O)=C1C | > 38 µM (inactive) |
| O=C1NC(c2ccc(-c3ccccc3[N+](=O)[O-])o2)C(C(=O)c2ccc(Cl)cc2)C(O)(C(F)(F)F)N1 (stereo not given) | 17 µM |
| CCCCNC1C(CC)C(CCC)C(C#N)(C#N)C1(C#N)C#N (stereo not given) | > 38 µM (inactive) |
| CCOc1cc(C(c2c(C)[nH][nH]c2=O)c2c(C)[nH][nH]c2=O)cc(Cl)c1O | > 38 µM (inactive) |
| CC(=O)c1c(C)nc(-c2ccc(Cl)cc2)nc1N=CN(C)C | > 38 µM (inactive) |
| COC(=O)Cc1[nH]nc2c1C(c1ccc(O)c(OC)c1)C(C#N)=C(N)O2 (stereo not given) | 28.4 µM |
| COc1ccc(/C=N/NC(=O)c2nn(-c3ccccc3)c(=O)c3c(N)scc23)cc1 | > 38 µM (inactive) |
| O=C(CSc1nnc(-c2ccccc2Cl)o1)Oc1ccc(Br)cc1 | > 38 µM (inactive) |
| COc1cc(C2NC(=O)C(C#N)=C(Nc3cccc(C)c3)S2)ccc1O (stereo not given) | 3.17 µM |
| COc1cc(C2C(C#N)=C(N)Oc3n[nH]c(-c4cccnc4)c32)cc(Br)c1O (stereo not given) | 4.01 µM |
| COC(=O)c1cc([N+](=O)[O-])c(-n2ccnc2)c([N+](=O)[O-])c1 | > 38 µM (inactive) |
| O=C(CSc1ncnc2c1nnn2Cc1ccccc1F)N1CCN(c2ccccc2)CC1 | > 38 µM (inactive) |
| FC(F)(F)c1ccc(C2[C@H]3CN(Cc4cccnc4)[C@H](c4ccccc4)C34CC2(c2cccnc2)C4)cc1 (stereo not given in full) | 5.51 µM |
| O=[N+]([O-])c1cc([N+](=O)[O-])c2cc3ccccc3nc2c1 | 7.29 µM |
| Cc1ccc2c(c1)Oc1ccc(NC(=O)CCl)cc1C(=O)N2 | 6.94 µM |
| Cc1noc2ncnc(Sc3ccc(Br)cc3)c12 | 13.5 µM |
| O=c1c(Cl)nc2cc(Cl)ccc2n1CCNc1ncc(C(F)(F)F)cc1Cl | > 38 µM (inactive) |
| O=c1c(Cl)c(Cl)cnn1Cc1ccc(F)cc1 | 35.3 µM |
